Tested on: patients with chronic constipation
Assay: Clinical trial in patients with chronic constipation (Example 5)
Type: in vivo, human
Procedure: After observation for 2 weeks, Compound 2 or a placebo was administered orally after eating to 79 patients with chronic constipation for 4 weeks. Patients who had steady symptoms for long periods were selected as constipation patients using diagnostic criteria of functional constipation based on Rome III as a reference.
2 mg TID group: administration of 2 mg of Compound 2, 3 times daily • (after breakfast, after lunch, after dinner)
20 mg QD group: administration of 20 mg of Compound 2, 1 time daily • (after breakfast)
20 mg BID group: administration of 20 mg of Compound 2, 2 times daily • (after breakfast, after dinner)
20 mg TID group: administration of 20 mg of Compound 2, 3 times daily • (after breakfast, after lunch, after dinner)
For the administration of Compound 2, tablets containing 1 or 10 mg in free drug equivalent of Compound 2 were used.
If the subjects complained that further administration of 2 tablets each time was difficult due to the increase in the frequency of spontaneous bowel movements or softened stool form causing problems in daily life, the dose was switched to 1 tablet each time in the week 1 visit or week 2 visit by the doctor and the administration was continued.

Cc1cc(OCCCNCC(C)(C)C(N)=O)ccc1Cc1c(O[C@@H]2O[C@H](CO)[C@@H](O)[C@H](O)[C@H]2O)n[nH]c1C(C)C.Cc1cc(OCCCNCC(C)(C)C(N)=O)ccc1Cc1c(O[C@@H]2O[C@H](CO)[C@@H](O)[C@H](O)[C@H]2O)n[nH]c1C(C)C.O=C(O)CCCCCCCCC(=O)O [Compound 2, bis[3-(3-{4-[3-(β-D-glucopyranosyloxy)-5-isopropyl-1H-pyrazol-4-ylmethyl]-3-methylphenoxy}propylamino)-2,2-dimethylpropionamide]monosebacate]
Subjects with hypoglycemia (all groups administered, 4 weeks): no subjects with hypoglycemia were reported | Frequency of spontaneous bowel movements per week (subject 1, 2 mg TID, administration week 1, observation period 1.1): 7.0 time/week | Bristol Stool Form Scale (subject 1, 2 mg TID, administration week 1, observation period 1.5): 3.7 mean/week | Frequency of spontaneous bowel movements per week (subject 1, 2 mg TID, administration week 2, observation period 1.1): 7.0 time/week | Bristol Stool Form Scale (subject 1, 2 mg TID, administration week 2, observation period 1.5): 3.7 mean/week | Frequency of spontaneous bowel movements per week (subject 1, 2 mg TID, administration week 3, observation period 1.1): 11.0 time/week | Bristol Stool Form Scale (subject 1, 2 mg TID, administration week 3, observation period 1.5): 4.1 mean/week | Frequency of spontaneous bowel movements per week (subject 1, 2 mg TID, administration week 4, observation period 1.1): 10.5 time/week | Bristol Stool Form Scale (subject 1, 2 mg TID, administration week 4, observation period 1.5): 3.8 mean/week | Frequency of spontaneous bowel movements per week (subject 2, 20 mg QD, administration week 1, observation period 1.8): 12.0 time/week | Bristol Stool Form Scale (subject 2, 20 mg QD, administration week 1, observation period 3.0): 4.6 mean/week | Frequency of spontaneous bowel movements per week (subject 2, 20 mg QD, administration week 2, observation period 1.8): 13.0 time/week | Bristol Stool Form Scale (subject 2, 20 mg QD, administration week 2, observation period 3.0): 4.0 mean/week | Frequency of spontaneous bowel movements per week (subject 2, 20 mg QD, administration week 3, observation period 1.8): 8.0 time/week | Bristol Stool Form Scale (subject 2, 20 mg QD, administration week 3, observation period 3.0): 3.4 mean/week | Bristol Stool Form Scale (subject 3, 20 mg BID switched to 10 mg 2 times daily after 1 week, administration week 2, observation period 2.0): 4.0 mean/week | Frequency of spontaneous bowel movements per week (subject 3, 20 mg BID switched to 10 mg 2 times daily after 1 week, administration week 2, observation period 2.2): 6.0 time/week | Bristol Stool Form Scale (subject 3, 20 mg BID switched to 10 mg 2 times daily after 1 week, administration week 3, observation period 2.0): 4.3 mean/week | Frequency of spontaneous bowel movements per week (subject 3, 20 mg BID switched to 10 mg 2 times daily after 1 week, administration week 3, observation period 2.2): 6.0 time/week | Bristol Stool Form Scale (subject 3, 20 mg BID switched to 10 mg 2 times daily after 1 week, administration week 4, observation period 2.0): 4.2 mean/week | Frequency of spontaneous bowel movements per week (subject 3, 20 mg BID switched to 10 mg 2 times daily after 1 week, administration week 4, observation period 2.2): 5.0 time/week | Bristol Stool Form Scale (subject 3, 20 mg BID, administration week 1, observation period 2.0): 5.9 mean/week | Frequency of spontaneous bowel movements per week (subject 3, 20 mg BID, administration week 1, observation period 2.2): 21.0 time/week
